ChEMBL document CHEMBL1909294, “Translating clinical findings into knowledge in drug safety evaluation--drug induced liver injury prediction system (DILIps)” (PLoS Comput Biol, 2011)

Columns and labels:
Hepatotoxicity [1] = system: Hepatotoxicity;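 for HepSE bilirubinemia: bilirubinemia hepatic side effect score drawn from the DILIps training data, a prediction system for drug-induced liver injury; call rule not given here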;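 for HepSE cholecystitis: Cholecystitis-related hepatic side effect score drawn from the DILIps (drug-induced liver injury prediction) training data set; call rule not given here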;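 for HepSE cholelithiasis: hepatic side effect score for cholelithiasis, drawn from the DILIps training data for predicting drug-induced liver injury; call rule not given here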;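 for HepSE cirrhosis: cirrhosis hepatic side effect score taken from the DILIps (drug-induced liver injury prediction) training set; call rule not given here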;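 for HepSE elevated liver function tests: hepatic side effect score for raised liver function tests, as recorded in the DILIps training set used for predicting drug-induced liver injury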; for HepSE hepatic failure: call rule not given here;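 for HepSE hepatomegaly: hepatic side effect score for hepatomegaly, taken from the training set of the DILIps drug-induced liver injury prediction system; call rule not given here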
Hepatotoxicity [2] = system: Hepatotoxicity; remark: listed apart in the source;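 for HepSE bilirubinemia: bilirubinemia hepatic side effect score drawn from the DILIps training data, a prediction system for drug-induced liver injury; call rule not given here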;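 for HepSE cholecystitis: Cholecystitis-related hepatic side effect score drawn from the DILIps (drug-induced liver injury prediction) training data set; call rule not given here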;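 for HepSE cholelithiasis: hepatic side effect score for cholelithiasis, drawn from the DILIps training data for predicting drug-induced liver injury; call rule not given here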;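 for HepSE cirrhosis: cirrhosis hepatic side effect score taken from the DILIps (drug-induced liver injury prediction) training set; call rule not given here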;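 for HepSE elevated liver function tests: hepatic side effect score for raised liver function tests, as recorded in the DILIps training set used for predicting drug-induced liver injury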; for HepSE hepatic failure: call rule not given here
Hepatotoxicity [3] = system: Hepatotoxicity; remark: listed apart in the source;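 for HepSE bilirubinemia: bilirubinemia hepatic side effect score drawn from the DILIps training data, a prediction system for drug-induced liver injury; call rule not given here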;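 for HepSE cholecystitis: Cholecystitis-related hepatic side effect score drawn from the DILIps (drug-induced liver injury prediction) training data set; call rule not given here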;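 for HepSE cholelithiasis: hepatic side effect score for cholelithiasis, drawn from the DILIps training data for predicting drug-induced liver injury; call rule not given here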;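 for HepSE cirrhosis: cirrhosis hepatic side effect score taken from the DILIps (drug-induced liver injury prediction) training set; call rule not given here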;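 for HepSE elevated liver function tests: hepatic side effect score for raised liver function tests, as recorded in the DILIps training set used for predicting drug-induced liver injury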; for HepSE hepatic failure: call rule not given here
Hepatotoxicity [4] = system: Hepatotoxicity; remark: listed apart in the source;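 for HepSE bilirubinemia: bilirubinemia hepatic side effect score drawn from the DILIps training data, a prediction system for drug-induced liver injury; call rule not given here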;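 for HepSE cholecystitis: Cholecystitis-related hepatic side effect score drawn from the DILIps (drug-induced liver injury prediction) training data set; call rule not given here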;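 for HepSE cholelithiasis: hepatic side effect score for cholelithiasis, drawn from the DILIps training data for predicting drug-induced liver injury; call rule not given here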;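 for HepSE cirrhosis: cirrhosis hepatic side effect score taken from the DILIps (drug-induced liver injury prediction) training set; call rule not given here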;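 for HepSE elevated liver function tests: hepatic side effect score for raised liver function tests, as recorded in the DILIps training set used for predicting drug-induced liver injury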; for HepSE hepatic failure: call rule not given here
Hepatotoxicity [5] = system: Hepatotoxicity; remark: listed apart in the source; for HepSE hepatic failure: call rule not given here
Hepatotoxicity [6] = system: Hepatotoxicity; remark: listed apart in the source; for HepSE hepatic failure: call rule not given here
Hepatotoxicity [7] = system: Hepatotoxicity; remark: listed apart in the source
Hepatotoxicity [8] = system: Hepatotoxicity; remark: listed apart in the source
Hepatotoxicity [9] = system: Hepatotoxicity; remark: listed apart in the source
Hepatotoxicity [10] = system: Hepatotoxicity; remark: listed apart in the source
Hepatotoxicity [11] = system: Hepatotoxicity; remark: listed apart in the source
Hepatotoxicity [12] = system: Hepatotoxicity; remark: listed apart in the source
Hepatotoxicity [13] = system: Hepatotoxicity; remark: listed apart in the source
Hepatotoxicity [14] = system: Hepatotoxicity; remark: listed apart in the source

Structure (SMILES)	HepSE_bilirubinemia (Hepatotoxicity [1])	HepSE_cholecystitis (Hepatotoxicity [2])	HepSE_cholelithiasis (Hepatotoxicity [3])	HepSE_cirrhosis (Hepatotoxicity [4])	HepSE_elevated liver function tests (Hepatotoxicity [5])	HepSE_hepatic failure (Hepatotoxicity [6])	HepSE_hepatic necrosis (Hepatotoxicity [7])	HepSE_hepatitis (Hepatotoxicity [8])	HepSE_hepatomegaly (Hepatotoxicity [9])	HepSE_jaundice (Hepatotoxicity [10])	HepSE_liver disease (Hepatotoxicity [11])	HepSE_liver fatty (Hepatotoxicity [12])	HepSE_liver function tests abnormal (Hepatotoxicity [13])	HepSE_Combined Scores (Hepatotoxicity [14])	HepSE_bilirubinemia (Hepatotoxicity [1]; Liver)	HepSE_cholecystitis (Hepatotoxicity [2]; Liver)	HepSE_cholelithiasis (Hepatotoxicity [3]; Liver)	HepSE_cirrhosis (Hepatotoxicity [4]; Liver)	HepSE_elevated liver function tests (Hepatotoxicity [5]; Liver)	HepSE_hepatic failure (Hepatotoxicity [6]; Liver)	further results
CC(C)[C@H](N)C(=O)OCCOCn1cnc2c(=O)[nH]c(N)nc21 [VALACYCLOVIR]	0	0	0	0	0	0	0	1	0	0	0	0	0	1	–	–	–	–	–	–	–
CCCNC(=O)NS(=O)(=O)c1ccc(Cl)cc1 [CHLORPROPAMIDE]	0	0	0	0	0	0	0	0	0	1	0	0	0	1	–	–	–	–	–	–	–
O=C(O)c1cc(-c2ccc(F)cc2F)ccc1O [DIFLUNISAL]	–	–	–	–	–	–	–	–	–	–	–	–	–	–	0	0	0	0	0	0	HepSE_hepatic necrosis (Hepatotoxicity [7]; Liver): 0; HepSE_hepatitis (Hepatotoxicity [8]; Liver): 1; HepSE_hepatomegaly (Hepatotoxicity [9]; Liver): 0; HepSE_jaundice (Hepatotoxicity [10]; Liver): 1; HepSE_liver disease (Hepatotoxicity [11]; Liver): 0; HepSE_liver fatty (Hepatotoxicity [12]; Liver): 0; HepSE_liver function tests abnormal (Hepatotoxicity [13]; Liver): 0; HepSE_Combined Scores (Hepatotoxicity [14]; Liver): 2
CC(CCc1ccc(O)cc1)NCCc1ccc(O)c(O)c1 (configuration not stated) [DOBUTAMINE]	0	0	0	0	0	0	0	0	0	0	0	0	0	0	–	–	–	–	–	–	–
NS(=O)(=O)c1cc2c(cc1C(F)(F)F)NC(Cc1ccccc1)NS2(=O)=O (configuration not stated) [BENDROFLUMETHIAZIDE]	0	0	0	0	0	0	0	1	0	1	0	0	0	2	–	–	–	–	–	–	–
C=C[C@H]1C[N@@]2CC[C@H]1C[C@@H]2[C@@H](O)c1ccnc2ccc(OC)cc12 [QUINIDINE]	0	0	0	0	0	0	0	1	0	1	0	0	1	3	–	–	–	–	–	–	–
Cn1cnc([N+](=O)[O-])c1Sc1ncnc2nc[nH]c12 [AZATHIOPRINE]	–	–	–	–	–	–	–	–	–	–	–	–	–	–	0	0	0	0	0	0	HepSE_hepatic necrosis (Hepatotoxicity [7]; Liver): 0; HepSE_hepatitis (Hepatotoxicity [8]; Liver): 0; HepSE_hepatomegaly (Hepatotoxicity [9]; Liver): 0; HepSE_jaundice (Hepatotoxicity [10]; Liver): 0; HepSE_liver disease (Hepatotoxicity [11]; Liver): 0; HepSE_liver fatty (Hepatotoxicity [12]; Liver): 0; HepSE_liver function tests abnormal (Hepatotoxicity [13]; Liver): 0; HepSE_Combined Scores (Hepatotoxicity [14]; Liver): 0
CCCCCc1cc(O)c2c(c1)OC(C)(C)[C@@H]1CCC(C)=C[C@@H]21 [DRONABINOL]	0	0	0	0	0	0	0	0	0	0	0	0	0	0	–	–	–	–	–	–	–
CC(=O)O[C@H]1C[C@@H]2CC[C@@H]3[C@H](CC[C@@]4(C)[C@H]3C[C@H]([N+]3(C)CCCCC3)[C@@H]4OC(C)=O)[C@@]2(C)C[C@@H]1[N+]1(C)CCCCC1 [PANCURONIUM]	–	–	–	–	–	–	–	–	–	–	–	–	–	–	0	0	0	0	0	0	HepSE_hepatic necrosis (Hepatotoxicity [7]; Liver): 0; HepSE_hepatitis (Hepatotoxicity [8]; Liver): 0; HepSE_hepatomegaly (Hepatotoxicity [9]; Liver): 0; HepSE_jaundice (Hepatotoxicity [10]; Liver): 0; HepSE_liver disease (Hepatotoxicity [11]; Liver): 0; HepSE_liver fatty (Hepatotoxicity [12]; Liver): 0; HepSE_liver function tests abnormal (Hepatotoxicity [13]; Liver): 0; HepSE_Combined Scores (Hepatotoxicity [14]; Liver): 0
CN(C)C(=N)N=C(N)N [METFORMIN]	–	–	–	–	–	–	–	–	–	–	–	–	–	–	0	0	0	0	0	0	HepSE_hepatic necrosis (Hepatotoxicity [7]; Liver): 0; HepSE_hepatitis (Hepatotoxicity [8]; Liver): 1; HepSE_hepatomegaly (Hepatotoxicity [9]; Liver): 0; HepSE_jaundice (Hepatotoxicity [10]; Liver): 0; HepSE_liver disease (Hepatotoxicity [11]; Liver): 0; HepSE_liver fatty (Hepatotoxicity [12]; Liver): 0; HepSE_liver function tests abnormal (Hepatotoxicity [13]; Liver): 1; HepSE_Combined Scores (Hepatotoxicity [14]; Liver): 2
CN(C)CCCN1c2ccccc2CCc2ccccc21 [IMIPRAMINE]	0	0	0	0	0	0	0	0	0	1	0	0	0	1	–	–	–	–	–	–	–
C=CC1=C(C(=O)O)N2C(=O)[C@@H](NC(=O)/C(=N\O)c3csc(N)n3)[C@H]2SC1	0	0	0	0	0	1	0	1	0	1	0	0	0	3	–	–	–	–	–	–	–
CC(N)C12CC3CC(CC(C3)C1)C2 (configuration not stated) [RIMANTADINE]	0	0	0	0	0	0	0	0	0	0	0	0	0	0	–	–	–	–	–	–	–
